Where a SMILES comes first, the peptide text is derived from it. Bridges are numbered along the chain shown (N, C = ends). [ ]: non-standard residue; d: D form. The star is where a group is joined. X1 = NC[C@@H](CC(=O)*)c1cccc(Cl)c1; Dab = NCC[C@H](N)C(=O)O; Dap = NC[C@H](N)C(=O)O

Here are results for 1 compound from PMC10353446, “Pharmacokinetics of SPR206 in Plasma, Pulmonary Epithelial Lining Fluid, and Alveolar Macrophages following Intravenous Administration to Healthy Adult Subjects” (Antimicrobial Agents and Chemotherapy, 2023).

In one series the test system is kidney cell. The settings on record: cited from earlier work.
The nature of series [1]: Epithelial lining fluid (ELF) pharmacokinetics of SPR206 by bronchoscopy with BAL, urea dilution method. The series is classed as in vivo, human. The protocol: This was a Phase 1, single-center, multiple-dose, open-label PK study in healthy adult male and female subjects. Subjects received three 100 mg doses of SPR206 administered q8h as a 1-h IV infusion. Three consecutive doses were sufficient to achieve steady-state based on a previous Phase 1 study in healthy subjects ([36]). A screening evaluation to determine eligibility for enrollment into the study was performed within 28 days of initial dosing. Subjects who met inclusion and exclusion criteria returned to the study unit 1 day before dosing (Day -1). Subjects who met inclusion and exclusion criteria were confined to the study site from Day -1 (1 day prior to start of dosing) and remained in the study site through completion of all scheduled procedures including collection of the last PK sample and bronchoscopy procedures along with safety evaluations (Day 2). Each subject underwent 1 bronchoscopy with BAL at 2, 3, 4, 6, or 8 h after the start of the third IV infusion. Subjects were required to return for a follow-up visit on Day 7 (+2 days) after discharge from the study site. The maximum duration of participation for each subject was up to 39 days (up to 28 days for Screening, 2 days of confinement, and up to 9 days for follow-up).
Subjects were assigned to 1 of 5 bronchoscopy sampling times at 2, 3, 4, 6, or 8 (± 10 min) after the third IV infusion of SPR206. Each subject underwent 1 standardized bronchoscopy and BAL on Day 2 at the assigned time. A blood sample to determine plasma concentrations of SPR206 and urea was obtained during the bronchoscopy procedure at each BAL sampling time (approximating the time of collection of a second aspirate of BAL). Detail descriptions of the outpatient bronchoscopy, BAL procedures, and the handling, processing, and storage of samples have been previously described ([58][–][60]).
The concentrations of SPR206 in BAL and in cell pellets were determined by Keystone Bioanalytical, Inc. using a validated LC-MS/MS method. ELF concentrations were calculated by the urea dilution method ([61], [62]). AM concentrations were determined from cell pellet drug concentrations, cell count in BAL fluid, and macrophage cell volume ([62]). The calibration curves for SPR206 were linear over a range from 2 to 1,000 ng/mL. The inter-assay precision (%CV) and accuracy (%RE) for SPR206 were 2.81% to 15.84% and -4.02% to 1.51%, respectively. The intra-assay precision (%CV) and accuracy (%RE) for SPR206 were 1.43% to 18.59% and -17.44% to 6.28%, respectively.
The concentration of urea in plasma and BAL fluid supernatants was determined using a validated LC/MS/MS method from Keystone Bioanalytical, Inc. Thirty human plasma and 30 BAL fluid samples were assayed for urea concentrations. A total of 10 samples for both plasma and BAL fluid (33.3%) were selected for testing, and the calculated assay variability was within 20%. The calibration curve for the urea assay in plasma was linear over the range from 100 to 3,000 μg/mL. The inter-assay precision (%CV) and accuracy (%RE) for SPR206 were 1.98% to 3.37% and -8.17% to 4.13%, respectively. The intra-assay precision (%CV) and accuracy (%RE) for SPR206 were 0.56% to 5.60% and -10.21% to 8.54%, respectively. The calibration range of the urea assay for BAL fluid was linear (r^2 > 0.998) over the range of 0.2 to 10 μg/mL. The inter-assay precision (%CV) and accuracy (%RE) for SPR206 were 6.40% to 9.77% and -3.22% to 1.47%, respectively. The intra-assay precision (%CV) and accuracy (%RE) for SPR206 were 0.96% to 12.08% and -11.30% to 9.15%, respectively.
Actual BAL samples were collected outside the protocol-specified sampling time windows. Thus, an updated method was utilized where the PK parameters for ELF or AM were calculated from composite concentration profiles of ELF or AM, respectively, based on the 27 subjects in the BAL PK population. […]

The conditions of series [2]: in vivo; cited from earlier work.
Where [3] appears, read: both sexes, human, in vivo, iv, 100 mg.

On to `CC(C)C[C@@H]1NC(=O)[C@@H](Cc2ccccc2)NC(=O)[C@H](CCN)NC(=O)[C@@H](NC(=O)[C@H](CN)NC(=O)[C@@H](NC(=O)C[C@H](CN)c2cccc(Cl)c2)[C@@H](C)O)CCNC(=O)[C@H]([C@@H](C)O)NC(=O)[C@H](CCN)NC(=O)[C@H](CCN)NC1=O` [SPR206] (X1-T[Dap][Dab][Dab][dF]L[Dab][Dab]T; lactam 3-C (inferred)), for which the Kidney cell cytotoxicity result with kidney cell is on record as “reduced kidney cell cytotoxicity”. Moreover, the “Ratio ELF to total plasma concentration, arithmetic mean ± SD” value in series [1] (BAL sampling time 2 hours post-dose) worked out at 0.183 ± 0.032; in series [1] (BAL sampling time 3 hours post-dose), 0.199 ± 0.066; in series [1] (BAL sampling time 4 hours post-dose), 0.190 ± 0.067; in series [1] (BAL sampling time 6 hours post-dose), 0.428 ± 0.176; in series [1] (BAL sampling time 8 hours post-dose) it was 0.347 ± 0.138. The “Ratio ELF to unbound plasma concentration, arithmetic mean ± SD” value in series [1] (BAL sampling time 2 hours post-dose, unbound fraction 0.914) was 0.200 ± 0.035; in series [1] (BAL sampling time 3 hours post-dose, unbound fraction 0.914), 0.218 ± 0.072; in series [1] (BAL sampling time 4 hours post-dose, unbound fraction 0.914), 0.208 ± 0.074; in series [1] (BAL sampling time 6 hours post-dose, unbound fraction 0.914) it was 0.469 ± 0.192; in series [1] (BAL sampling time 8 hours post-dose, unbound fraction 0.914) it was 0.380 ± 0.151. In series [1] (after third 100 mg IV dose, plasma n = 34, ELF n = 27), the “Ratio of AUC0-8 of ELF to AUC0-8 of total plasma” value is recorded as 0.242. Moreover, the “Ratio of AUC0-8 of ELF to AUC0-8 of unbound plasma” value in series [1] (after third 100 mg IV dose, plasma n = 34, ELF n = 27, unbound fraction 0.914) came out at 0.264. Besides, the AUC(0-t) (usually the area under the concentration-time curve up to a stated or last time point) in series [1] (setting [3]) worked out at 4860 ng·h/mL. Also, in series [1] (setting [3]), the Cmax (in general, the highest concentration seen after dosing) turned out to be 736 ng/mL. In series [1] (setting [3]), the Tmax (in general, the time from dosing to the highest level) stood at 2.2 h. Further, in series [2], the “Exposure in the kidney” value is on record as “lower exposure in the kidney than polymyxin B”.
